Reference: patent US11865109B2 (NOVARTIS AG, priority 2019, dated 2024)
Each block holds one compound with its values, some of them ahead of it.

Columns and labels:
Assay type in all cases: in vivo, human
[1] = ADME study: excretion/mass balance of radioactivity in urine and feces
Procedure: (§1) Six healthy male subjects of aged 18 to 55 years (inclusive) were included in this study.
(§2) All treatment administrations (Day 1 to Day 12) occurred approximately 30 minutes following consumption of a standardized meal. Treatments were administered with ˜240 mL water as 4×100 mg hard gelatin capsules. The radioactive release criteria was met and all the subjects were released from the study site on Day 14 afternoon.
(§3) The PK blood sample collection schedule was appropriate to characterize the PK of Compound 1 and any circulating major metabolites. The urine and feces collection schedule was set up adequately to ensure complete excretion of radioactivity. Due to the non-linear PK of Compound 1, the study was conducted at steady state.
[14C]-radioactivity data, which was based on LSC analyses, for excreta was used to calculate percentage of dose excreted via urine or feces as well as a total percent of dose recovered.
(§4) Profiles of radioactive metabolites in urine and feces pools representing more than 90% of total radioactivity in the collected excreta of individual subjects were specified as dose proportion (%) per metabolite.

[2] = ADME study: PK of total radioactivity in blood and plasma (LSC); design: AUC (last), blood radioactivity / AUC (last), plasma radioactivity / AUC (inf), blood radioactivity: concentration or dose not given beside the values
Procedure: as §1
The study consisted of a 28-day screening period (including baseline period of 1 day) and 12 days of treatment period. The study design is depicted in FIG. 10.
as §2, §3
(§5) Subjects who met the eligibility criteria were admitted to the study site approximately 24 hours prior to dosing for baseline evaluations. […] Safety assessments included physical examinations, electrocardiograms (ECGs), vital signs, standard clinical laboratory evaluations (hematology, blood chemistry, and urinalysis), AE and serious adverse event (SAE) monitoring.
Blood, plasma, urine, and feces samples were obtained and evaluated in all subjects. […] If the co-efficient of variation of replicate radioactivity measurements was >20%, the sample was re-homogenized and/or reanalyzed.
Single-dose blood and plasma PK parameters (Cmax, Tmax, AUClast and AUCinf), for total radioactivity were derived from plasma and blood concentration versus sampling time data. PK parameters were determined using non-compartmental method(s) with Phoenix WinNonLin (Version 6.4) for total radioactivity.

[3] = ADME study: safety and tolerability; settings: multiple-dose oral 400 mg Compound 1 and single oral 400 mg [14C]Compound 1, healthy subjects
Procedure: as §1, §2, §5

[4] = Relative bioavailability and food effect study, single oral dose of 450 mg, plasma PK of Compound 1
Text: (§6) Pharmacokinetic samples were obtained and evaluated in all subjects.

[5] = ADME study: metabolite pattern analysis in plasma
Procedure: as §1, §2, §4
Pharmacokinetic samples were obtained and evaluated in all subjects. Compound 1 was determined in plasma by a validated liquid chromatography with tandem mass spectrometry (LC-MS/MS) method using electrospray ionization. A non-validated method was used to analyze metabolites of Compound 1.

[6] = ADME study: plasma PK of Compound 1 at steady state (LC-MS/MS)
Procedure: as §1
All treatment administrations (Day 1 to Day 12) occurred approximately 30 minutes following consumption of a standardized meal. Treatments were administered with ˜240 mL water as 4×100 mg hard gelatin capsules.
as §6
The PK parameters were based on the actual recorded sampling times and non-compartmental method(s) with Phoenix WinNonLin (Version 6.4). The terminal rate constant (λz) was determined from automated (WinNonlin algorithm) linear regression of at least the last three points with non-zero concentrations in the terminal phase of the log-transformed concentration-time profile.

[7] = single oral 400 mg [14C]Compound 1 at steady state
[8] = time period 0-216 h, mean, radioactivity after [14C]Compound 1
[9] = plasma time pools of N = 6 subjects, metabolite pattern analysis
[10] = male, human, oral, 400 mg, Day 5, 0-12 hours, steady state, mean of N = 6
[11] = blood, total radioactivity, mean of N = 6

Radioactivity in samples collected after 96 hours post-dose ([1]; after 96 hours post-dose of [14C]Compound 1): less than 3 % of the dose
Excretion of radioactivity, mean ([1]; after 9 days, range 93.4%-99.1%): 97.6%
Extent of oral absorption ([1]; oral 400 mg [14C]Compound 1 at steady state, N=6, range 89.7%-97.40%): 93.4%
Renal excretion of radioactivity (mainly in the form of metabolites) [1, 7]: 92.3±4.2 % of the dose
Radioactive dose recovered in feces and urine ([1]; within 96 hours): > 95 % of dose
Time post-dose up to which radioactivity was detected in blood [2, 7]: up to 48 hours
Time post-dose up to which radioactivity was detected in plasma [2, 7]: ≤ 96 h
Compound: COc1nc(C(=O)NC[C@](C)(O)C(F)(F)F)c(N)cc1C(F)(F)F [[14C]Compound 1]

14C-Excretion, Feces [1, 8]: 5.2 % of dose
14C-Excretion, Urine [1, 8]: 92.3 % of dose
14C-Excretion, Total ([1]; time period 0-216 h, urine plus feces, mean, radioactivity after [14C]Compound 1): 97.6 % of dose
Compound 1 detected in urine ([1]; within 0-96 hours): 3.35 % of the dose
half-life ([4]; both sexes, human, plasma, single oral 450 mg, all fasted treatments): ~16 h
Food effect ([4]; single 450 mg dose, high-fat meal vs fasted): positive food effect
AUC(0-inf) ([5]; male, human, oral, 400 mg, plasma time pools of N = 6 subjects, AUCinf = AUClast + AUCt-inf): 22.7 µM·h
AUC(0-t) ([5]; male, human, oral, 400 mg, plasma time pools of N = 6 subjects, metabolite pattern analysis, linear trapezoidal method, read-out: AUC0-48 h in plasma): 22.1 µM·h
half-life ([5]; male, human, oral, 400 mg, plasma time pools of N = 6 subjects, metabolite pattern analysis, read-out: T½ in plasma (converted)): 11.2 h
Proportion of the plasma 14C-AUC0-48 h ([5]; metabolite pattern analysis, oral 400 mg [14C]Compound 1 at steady state): 18.5%
Extent of metabolism ([5]; oral 400 mg [14C]Compound 1 at steady state, humans): extensively metabolized
AUC0-48 h, percent of total radiolabeled components AUC0-48 h [5, 9]: 18.5%
AUCinf, percent of total radiolabeled components AUCinf [5, 9]: 17.5%
Tlast (range), plasma Compound 1 ([6]; Day 5, 0-12 hours): 12 h
AUC (% of 14C-AUCinf plasma), plasma Compound 1 ([6]; Day 5, 0-12 hours, mean of N = 6): 16.6 % of 14C-AUCinf plasma
CL/F ([6]; male, human, oral, 400 mg b.i.d., steady state, CV % 45.1%, read-out: Steady state plasma clearance (CLss/F), mean (converted)): 947 mL/min
Vd/F ([6]; male, human, oral, 400 mg b.i.d., steady state, CV % 48.1%, read-out: Apparent volume of distribution (Vz/F), mean): 335 L
Tmax ([6]; male, human, oral, 400 mg b.i.d., steady state, Day 5, range 1.0 hour-4.0 hours): 4 h
AUC(0-t) [6, 10]: 8.17 µg·h/mL
Cmax [6, 10]: 1.68 µg/mL
AUC (inf), blood radioactivity ([2]; blood, total radioactivity, AUCinf = AUClast + AUCt-inf, mean of N = 6): 27900 ng-eq·h/mL
Tlast (range), blood radioactivity ([2]; blood, total radioactivity, N = 6): 24 to 48 h
AUC (last), blood radioactivity ([2]; blood, total radioactivity, linear trapezoidal rule, mean of N = 6): 24700 ng-eq·h/mL
AUC % Extrap, blood radioactivity [2, 11]: 12.2 % of AUCinf
AUC (% of 14C-AUCinf plasma), blood radioactivity [2, 11]: 57.9 % of 14C-AUCinf plasma
Cmax, blood radioactivity ([2]; blood, total radioactivity, oral 400 mg [14C]Compound 1, mean of N = 6): 2670 ng-eq/mL
Tlast (range), plasma radioactivity ([2]; plasma, total radioactivity, N = 6): 48 to 96 h
AUC (last), plasma radioactivity ([2]; plasma, total radioactivity, linear trapezoidal rule, mean of N = 6): 45600 ng-eq·h/mL
AUC % Extrap, plasma radioactivity ([2]; plasma, total radioactivity, mean of N = 6): 5.74 % of AUCinf
Cmax, plasma radioactivity ([2]; plasma, total radioactivity, oral 400 mg [14C]Compound 1, mean of N = 6): 4280 ng-eq/mL
Fraction of total radioactivity in blood confined to the plasma compartment (Fp) [2, 7]: 93.3±3.35%
Compound: COc1nc(C(=O)NC[C@](C)(O)C(F)(F)F)c(N)cc1C(F)(F)F [Compound 1, (S)-3-amino-6-methoxy-N-(3,3,3-trifluoro-2-hydroxy-2-methylpropyl)-5-(trifluoromethyl)picolinamide]
Safety and tolerability [3]: safe and well tolerated
